Test results reported in patent publication US8940756B2, “Dihydronaphthyridines and related compounds useful as kinase inhibitors for the treatment of proliferative diseases” (Deciphera Pharmaceuticals, Inc., priority 2012, dated 2015).

Columns and labels:
[1] = molecular target: T1, c-KIT kinase (Seq ID no. 1) (Homo sapiens, UniProt P10721); assay: c-KIT Kinase Assay (pyruvate kinase/lactate dehydrogenase coupled); format: biochemical; conditions: enzymatic assay, ATP 200 μM; read-out: KIT (wt)
T1 construct: GST (N); TEV cleavage site (N); purchased deCODE Biostructures
Experimental: In this assay, the oxidation of NADH (measured by decrease in absorbance at 340 nm) was continuously monitored spectrophotometrically. […] The absorption at 340 nm was monitored continuously for 2 hours at 30° C. on Synergy 2 (BioTeK). The reaction rate was calculated using the 0 to 1 h time frame. Percent inhibition was obtained by comparison of reaction rate with that of a control (i.e. with no test compound). IC50 values were calculated from a series of percent inhibition values determined at a range of inhibitor concentrations using software routines as implemented in the GraphPad Prism software package. The protein construct was prepared by deCODE Biostructures using procedures known in the art. The construct contains […] of cKit, an N-terminal tag, a GST-fusion sequence and a TEV cleavage site.

[2] = molecular target: T2, c-KIT D816V kinase (Seq ID no. 4) (Homo sapiens, UniProt P10721, D816V); assay: c-KIT D816V kinase Assay; format: biochemical; conditions: enzymatic assay, ATP 200 uM
T2 construct: D816V c-KIT (residues T544-V976 with N-terminal GST fusion, 16 nM); purchased deCODE Biostructures
Experimental: (§1) In this assay, the oxidation of NADH (measured by decrease in absorbance at 340 nm) was continuously monitored spectrophotometrically. […] The inhibition reaction was started by mixing serial diluted test compound with the above reaction mixture. The absorption at 340 nm was monitored continuously for 5 hours at 30° C. on Synergy 2 plate reader (BioTech).
The protein construct was prepared by deCODE Biostructures using procedures known in the art. The construct contains residues T544-V976 of cKit, an N-terminal tag, a GST-fusion sequence and a TEV cleavage site. This construct is identical to Seq ID no. 1 except for the D816V mutation.

[3] = molecular target: T3, c-KIT T670I kinase (Seq ID no. 6) (Homo sapiens, UniProt P10721, T670I); assay: c-KIT T670I Kinase Assay; format: biochemical; conditions: enzymatic assay, ATP 200 uM
T3 construct: GST (N); TEV cleavage site (N); purchased deCODE Biostructures
Experimental: as §1, with “(BioTech). […] The protein construct was prepared by deCODE Biostructures using procedures known in the art. The construct contains […] of cKit, an N-terminal tag, a GST-fusion sequence and a TEV cleavage site. This construct is identical to Seq ID no.” for “(BioTech).”

[4] = molecular target: Phospho-KIT (Tyr719) in GIST430 cells (Homo sapiens, UniProt P10721); assay: GIST430 KIT Western Blot; format: cell-based; conditions: 4 hours, read-out: pKIT suppression by western blot analysi GIST430
Experimental: (§2) GIST48, GIST430, and GIST882 cells were obtained from J. Fletcher (Brigham and Women's Hospital, Boston, Mass.). GIST T1 cells were obtained from B. Rubin (Cleveland Clinic, Cleveland, Ohio) and Professor Takahiro Taguchi (Kochi Medical School, Nankoku, Kochi, Japan). […] GIST430 cells were grown in Ham's F10 medium supplemented with 15% characterized fetal bovine serum (Invitrogen, Carlsbad, Calif.), 30 mg/L bovine pituitary extract (BD Biosciences, San Jose, Calif.), 0.5% Mito+ serum extender (BD Biosciences, San Jose, Calif.), 1 unit/mL penicillin G, 1 μg/ml streptomycin, and 0.29 mg/mL L-glutamine at 37° C., 5% CO2, 95% humidity. GIST T1 cells were grown in DMEM medium supplemented with 10% characterized fetal bovine serum (Invitrogen, Carlsbad, Calif.), 1 unit/mL penicillin G, 1 ng/ml streptomycin, and 0.29 mg/mL L-glutamine at 37° C., 5% CO2, and 95% humidity. Cells were allowed to expand until reaching 70-95% confluence at which point they were subcultured or harvested for assay use.
(§3) One hundred fifty thousand cells were added per well in a 24-well tissue-culture treated plate. Cells were then incubated overnight at 37° C., 5% CO2, 95% humidity. Medium was aspirated, cells were washed with PBS, and serum-free Ham's F10 medium was added. A serial dilution of test compound was added to plates containing cells and plates were incubated for 4 hours at 37° C., 5% CO2, 95% humidity. Cells were washed with PBS, then lysed. Cell lysates were separated by SDS-PAGE and transferred to PVDF. Phospho-KIT (Tyr719) was detected using an antibody from Cell Signaling Technology (Beverly, Mass.), ECL Plus detection reagent (GE Healthcare, Piscataway, N.J.) and a Molecular Devices Storm 840 phosphorimager in fluorescence mode. Blots were stripped and probed for total KIT using an antibody from Santa Cruz Biotech (Santa Cruz, Calif.). IC50 values were calculated using Prism software (Graphpad, San Diego, Calif.).

[5] = molecular target: Phospho-KIT (Tyr719) in GIST48 cells (Homo sapiens, UniProt P10721); assay: GIST48 KIT Western Blot; format: cell-based; conditions: 4 hours, read-out: pKIT suppression by western blot analysi GIST48
Experimental: as §2
as §3, with “Two” for “One”, “RPMI1640” for “Ham's F10”

Chain of Phospho-KIT (Tyr719) in GIST48 cells (P10721 whole entry V560D/D820A, form open): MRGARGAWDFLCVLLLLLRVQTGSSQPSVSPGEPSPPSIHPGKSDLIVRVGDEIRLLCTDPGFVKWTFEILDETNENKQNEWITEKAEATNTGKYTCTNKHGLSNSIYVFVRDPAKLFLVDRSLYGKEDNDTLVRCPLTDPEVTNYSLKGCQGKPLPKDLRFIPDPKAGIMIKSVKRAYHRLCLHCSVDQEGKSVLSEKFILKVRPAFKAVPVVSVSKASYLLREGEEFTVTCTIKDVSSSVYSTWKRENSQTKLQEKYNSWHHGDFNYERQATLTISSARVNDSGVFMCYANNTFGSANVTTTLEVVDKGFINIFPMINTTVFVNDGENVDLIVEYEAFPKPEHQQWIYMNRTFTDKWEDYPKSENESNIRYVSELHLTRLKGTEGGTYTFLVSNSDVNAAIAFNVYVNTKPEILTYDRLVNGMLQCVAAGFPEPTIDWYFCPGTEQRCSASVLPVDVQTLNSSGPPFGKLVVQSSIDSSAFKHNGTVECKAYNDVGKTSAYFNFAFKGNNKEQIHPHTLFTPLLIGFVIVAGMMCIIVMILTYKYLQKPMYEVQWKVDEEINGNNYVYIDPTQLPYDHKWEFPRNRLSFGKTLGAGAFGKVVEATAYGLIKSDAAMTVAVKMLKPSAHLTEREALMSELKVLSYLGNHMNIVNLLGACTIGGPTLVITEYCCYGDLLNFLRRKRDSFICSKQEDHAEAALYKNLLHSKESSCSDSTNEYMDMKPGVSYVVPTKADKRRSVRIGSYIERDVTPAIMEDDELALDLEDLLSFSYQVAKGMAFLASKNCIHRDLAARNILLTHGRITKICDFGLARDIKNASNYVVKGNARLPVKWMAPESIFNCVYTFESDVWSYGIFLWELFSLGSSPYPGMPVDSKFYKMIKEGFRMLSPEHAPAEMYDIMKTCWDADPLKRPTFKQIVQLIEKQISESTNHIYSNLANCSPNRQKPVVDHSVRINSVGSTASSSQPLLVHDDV
Chain of Phospho-KIT (Tyr719) in GIST430 cells (P10721 with tags, fused parts or gaps DEL560-576/V654A, form open): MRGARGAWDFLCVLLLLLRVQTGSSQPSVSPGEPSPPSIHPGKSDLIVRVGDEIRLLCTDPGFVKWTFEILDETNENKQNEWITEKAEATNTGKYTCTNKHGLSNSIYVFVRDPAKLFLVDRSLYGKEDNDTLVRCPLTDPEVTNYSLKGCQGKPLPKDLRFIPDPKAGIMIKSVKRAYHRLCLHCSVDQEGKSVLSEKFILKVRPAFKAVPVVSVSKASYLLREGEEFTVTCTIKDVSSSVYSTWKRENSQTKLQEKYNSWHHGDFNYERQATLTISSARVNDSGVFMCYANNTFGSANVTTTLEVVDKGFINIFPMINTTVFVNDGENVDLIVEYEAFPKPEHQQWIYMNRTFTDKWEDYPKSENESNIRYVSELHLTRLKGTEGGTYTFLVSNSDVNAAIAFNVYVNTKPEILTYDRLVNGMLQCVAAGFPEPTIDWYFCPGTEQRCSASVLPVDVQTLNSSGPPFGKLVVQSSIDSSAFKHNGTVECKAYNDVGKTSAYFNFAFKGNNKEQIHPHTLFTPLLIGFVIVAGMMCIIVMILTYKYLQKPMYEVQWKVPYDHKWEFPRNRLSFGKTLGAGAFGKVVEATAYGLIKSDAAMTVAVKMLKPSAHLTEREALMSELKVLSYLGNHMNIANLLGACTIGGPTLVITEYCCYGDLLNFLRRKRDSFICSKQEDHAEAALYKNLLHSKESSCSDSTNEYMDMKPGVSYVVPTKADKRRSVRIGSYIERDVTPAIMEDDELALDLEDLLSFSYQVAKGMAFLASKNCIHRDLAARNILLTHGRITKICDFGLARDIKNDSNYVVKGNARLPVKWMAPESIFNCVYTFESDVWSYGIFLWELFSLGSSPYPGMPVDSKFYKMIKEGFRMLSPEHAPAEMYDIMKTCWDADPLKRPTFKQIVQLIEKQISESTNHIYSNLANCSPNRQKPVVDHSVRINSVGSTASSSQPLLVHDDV
T1 sequence (P10721 with tags, fused parts or gaps): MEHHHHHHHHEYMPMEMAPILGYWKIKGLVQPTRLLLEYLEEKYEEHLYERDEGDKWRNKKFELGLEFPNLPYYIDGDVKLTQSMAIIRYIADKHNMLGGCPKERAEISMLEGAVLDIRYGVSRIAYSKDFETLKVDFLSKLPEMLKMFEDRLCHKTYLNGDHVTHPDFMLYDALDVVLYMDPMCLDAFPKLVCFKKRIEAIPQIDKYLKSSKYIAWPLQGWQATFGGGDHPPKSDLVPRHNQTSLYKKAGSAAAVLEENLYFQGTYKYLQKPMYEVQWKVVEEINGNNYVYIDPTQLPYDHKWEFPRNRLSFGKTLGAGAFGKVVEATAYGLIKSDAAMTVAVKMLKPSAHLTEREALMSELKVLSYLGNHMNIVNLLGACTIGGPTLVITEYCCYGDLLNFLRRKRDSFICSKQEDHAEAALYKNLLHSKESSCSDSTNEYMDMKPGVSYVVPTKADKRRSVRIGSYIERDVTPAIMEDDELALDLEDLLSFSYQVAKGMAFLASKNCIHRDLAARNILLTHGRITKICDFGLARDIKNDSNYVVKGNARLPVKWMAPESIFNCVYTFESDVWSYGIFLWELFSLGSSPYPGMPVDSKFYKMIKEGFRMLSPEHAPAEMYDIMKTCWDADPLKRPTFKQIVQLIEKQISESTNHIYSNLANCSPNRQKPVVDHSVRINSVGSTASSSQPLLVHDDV
T3 sequence (P10721 544-976 T670I): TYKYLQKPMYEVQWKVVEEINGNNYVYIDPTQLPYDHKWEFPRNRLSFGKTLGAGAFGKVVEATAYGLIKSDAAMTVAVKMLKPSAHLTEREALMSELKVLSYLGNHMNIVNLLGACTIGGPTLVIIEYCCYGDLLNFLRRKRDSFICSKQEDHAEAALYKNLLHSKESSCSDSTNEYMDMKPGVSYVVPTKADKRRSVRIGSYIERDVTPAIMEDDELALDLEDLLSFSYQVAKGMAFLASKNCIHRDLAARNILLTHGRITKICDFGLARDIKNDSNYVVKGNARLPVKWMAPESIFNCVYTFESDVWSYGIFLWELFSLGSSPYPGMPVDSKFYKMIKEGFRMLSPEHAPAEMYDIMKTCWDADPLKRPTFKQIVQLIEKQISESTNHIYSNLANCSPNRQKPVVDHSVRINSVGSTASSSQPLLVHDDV
T2 sequence (P10721 544-976 D816V): as the sequence (P10721 544-976 T670I) above, with I127T, D273V counted along it

Row | IC50 [1] [nM] | IC50 [2] [nM] | IC50 [3] [nM] | IC50 [4] [nM] | IC50 [5] [nM] | SMILES
1 | 10 to 100 | 10 to 100 | 100 to 1000 |  |  | CCn1c(=O)c(-c2cc(NC(=O)Nc3ccccc3)c(F)cc2Cl)cc2cnc(NC3CCOCC3)cc21 [Example 42, 1-(4-chloro-5-(1-ethyl-2-oxo-7-(tetrahydro-2H-pyran-4-ylamino)-1,2-dihydro-1,6-naphthyridin-3-yl)-2-fluorophenyl)-3-phenylurea]
2 | 10 to 100 | 100 to 1000 | > 1000 |  |  | CCn1c(=O)c(-c2cc(NC(=O)Nc3ccccc3)c(F)cc2Cl)cc2cnc(NC3CCN(C)CC3)cc21 [Example 46, 1-(4-chloro-5-(1-ethyl-7-(1-methylpiperidin-4-ylamino)-2-oxo-1,2-dihydro-1,6-naphthyridin-3-yl)-2-fluorophenyl)-3-phenylurea]
3 |  |  |  | 10 to 100 | 10 to 100 | CCn1c(=O)c(-c2cc(NC(=O)Nc3csc4ccccc34)c(F)cc2C)cc2cnc(NC)cc21 [Example 59, 1-(benzo[b]thiophen-3-yl)-3-(5-(1-ethyl-7-(methylamino)-2-oxo-1,2-dihydro-1,6-naphthyridin-3-yl)-2-fluoro-4-methylphenyl)urea]
4 |  |  |  | 10 to 100 | > 1000 | CCn1c(=O)c(-c2cc(NC(=O)Nc3cc(F)cc(F)c3)c(F)cc2C)cc2cnc(NC)cc21 [Example 60, 1-(3,5-difluorophenyl)-3-(5-(1-ethyl-7-(methylamino)-2-oxo-1,2-dihydro-1,6-naphthyridin-3-yl)-2-fluoro-4-methylphenyl)urea]
5 |  |  |  | 10 to 100 | > 1000 | CCn1c(=O)c(-c2cc(NC(=O)Nc3cc(F)ccc3F)c(F)cc2C)cc2cnc(NC)cc21 [Example 61, 1-(2,5-difluorophenyl)-3-(5-(1-ethyl-7-(methylamino)-2-oxo-1,2-dihydro-1,6-naphthyridin-3-yl)-2-fluoro-4-methylphenyl)urea]
6 |  |  |  | 10 to 100 | 100 to 1000 | CCn1c(=O)c(-c2cc(NC(=O)Nc3cc(F)cc(F)c3)c(F)cc2F)cc2cnc(NC)cc21 [Example 63]
7 |  |  |  | < 10 | < 10 | CCn1c(=O)c(-c2cc(NC(=O)Nc3cc(F)cc(F)c3)c(F)cc2Cl)cc2cnc(NC(C)=O)cc21 [Example 67, N-(3-(2-chloro-5-(3-(3,5-difluorophenyl)ureido)-4-fluorophenyl)-1-ethyl-2-oxo-1,2-dihydro-1,6-naphthyridin-7-yl)acetamide]
8 |  |  |  | 10 to 100 | 100 to 1000 | CCn1c(=O)c(-c2cc(NC(=O)Nc3cc(F)ccc3F)c(F)cc2Cl)cc2cnc(NC)cc21 [Example 68, 1-(4-chloro-5-(1-ethyl-7-(methylamino)-2-oxo-1,2-dihydro-1,6-naphthyridin-3-yl)-2-fluorophenyl)-3-(2,5-difluorophenyl)urea]
9 |  |  |  | < 10 | 10 to 100 | CCn1c(=O)c(-c2cc(NC(=O)Nc3ccccc3)c(F)cc2Cl)cc2cnc(NC(=O)N(C)C)cc21 [Example 70, 3-(3-(2-chloro-4-fluoro-5-(3-phenylureido)phenyl)-1-ethyl-2-oxo-1,2-dihydro-1,6-naphthyridin-7-yl)-1,1-dimethylurea]
10 |  |  |  | 10 to 100 | 10 to 100 | CCn1c(=O)c(-c2cc(NC(=O)Nc3ccccc3)c(F)cc2Cl)cc2cnc(NC(=O)OC)cc21 [Example 73, methyl (3-(2-chloro-4-fluoro-5-(3-phenylureido)phenyl)-1-ethyl-2-oxo-1,2-dihydro-1,6-naphthyridin-7-yl)carbamate]
11 |  |  |  | 10 to 100 | 10 to 100 | CNc1cc2c(cn1)cc(-c1cc(NC(=O)Nc3cccc(F)c3)c(F)cc1Cl)c(=O)n2C(C)C [Example 77, 1-(4-chloro-2-fluoro-5-(1-isopropyl-7-(methylamino)-2-oxo-1,2-dihydro-1,6-naphthyridin-3-yl)phenyl)-3-(3-fluorophenyl)urea]
12 |  |  |  | 10 to 100 | 10 to 100 | CCn1c(=O)c(-c2cc(NC(=O)Nc3ccccc3)c(F)cc2Cl)cc2cnc(NC(=O)N3CC(O)C3)cc21 [Example 81, N-(3-(2-chloro-4-fluoro-5-(3-phenylureido)phenyl)-1-ethyl-2-oxo-1,2-dihydro-1,6-naphthyridin-7-yl)-3-hydroxyazetidine-1-carboxamide]
13 |  |  |  | 10 to 100 | 10 to 100 | CCn1c(=O)c(-c2cc(NC(=O)Nc3ccccc3)c(F)cc2Cl)cc2cnc(NC(=O)N3CC[C@@H](N(C)C)C3)cc21 [Example 84, (R)—N-(3-(2-chloro-4-fluoro-5-(3-phenylureido)phenyl)-1-ethyl-2-oxo-1,2-dihydro-1,6-naphthyridin-7-yl)-3-(dimethylamino)pyrrolidine-1-carboxamide]
14 |  |  |  | 10 to 100 | < 10 | CC(=O)Nc1cc2c(cn1)cc(-c1cc(NC(=O)Nc3ccccc3)c(F)cc1Cl)c(=O)n2C(C)C [Example 86, N-(3-(2-chloro-4-fluoro-5-(3-phenylureido)phenyl)-1-isopropyl-2-oxo-1,2-dihydro-1,6-naphthyridin-7-yl)acetamide]
15 |  |  |  | 100 to 1000 | 10 to 100 | CCn1c(=O)c(-c2cc(NC(=O)Nc3ccc(F)c(CN4CCN(C)CC4)c3)c(F)cc2Cl)cc2cnc(NC)cc21 [Example 87]
16 |  |  |  | 10 to 100 | > 1000 | CCn1c(=O)c(-c2cc(NC(=O)Nc3ccccc3)c(F)cc2C)cc2cnc(NC(=O)N(C)C)cc21 [Example 101, 3-(1-ethyl-3-(4-fluoro-2-methyl-5-(3-phenylureido)phenyl)-2-oxo-1,2-dihydro-1,6-naphthyridin-7-yl)-1,1-dimethylurea]
17 |  |  |  | 10 to 100 | 10 to 100 | CCn1c(=O)c(-c2cc(NC(=O)Nc3ccccc3)c(F)cc2Cl)cc2cnc(NC(=O)N3CC(N(C)C)C3)cc21 [Example 102, N-(3-(2-chloro-4-fluoro-5-(3-phenylureido)phenyl)-1-ethyl-2-oxo-1,2-dihydro-1,6-naphthyridin-7-yl)-3-(dimethylamino)azetidine-1-carboxamide]
18 |  |  |  | 10 to 100 | 100 to 1000 | CCn1c(=O)c(-c2cc(NC(=O)Nc3cc(F)cc(F)c3)c(F)cc2C)cc2cnc(NC(=O)N(C)C)cc21 [Example 108, 3-(3-(5-(3-(3,5-difluorophenyl)ureido)-4-fluoro-2-methylphenyl)-1-ethyl-2-oxo-1,2-dihydro-1,6-naphthyridin-7-yl)-1,1-dimethylurea]
